Laboratory results taken from ChEMBL document CHEMBL1149795, “5,7-Dihydroxychromone-2-carboxylic acid and it's transition-metal (Mn and Zn) chelates as non-thiol radioprotective agents” (Eur J Med Chem, 2008).

What was measured:
Mus musculus [1] = assay: Radioprotective activity against gamma-irradiation in NMRI mouse assessed as survival at 0.5 mmol/kg, sc administered 24 hrs prior to irradiation measured after 30 days; format: functional; conditions: light or radiation study
Mus musculus [2] = assay: Radioprotective activity against gamma-irradiation in NMRI mouse assessed as survival at 1.0 mmol/kg, sc administered 24 hrs prior to irradiation measured after 30 days; format: functional; conditions: light or radiation study
[3] = Toxicity against sc dosed NMRI mouse; format: organism-based; conditions: in vivo
Mus musculus [4] = assay: Radioprotective activity against gamma-irradiation in NMRI mouse assessed as survival at 0.5 mmol/kg, sc administered 1 hr prior to irradiation measured after 30 days; format: functional; conditions: light or radiation study

SMILES: O=C(O)c1cc(=O)c2c(O)cc(O)cc2o1
- survival at 500 µmol/kg (Mus musculus [1]): 35%
- survival at 1000 µmol/kg (Mus musculus [2]): 50%
- LD50 [3]: > 1500 mg/kg

SMILES: NCCCNCCSP(=O)(O)O [AMIFOSTINE]
- LD50 [3]: 609 mg/kg
- survival at 500 µmol/kg (Mus musculus [4]): 81%
